Laboratory results as given in patent US12065443B2, “Compounds and pharmaceutical compositions thereof for the treatment of diseases” (priority 2017, dated 2024).
pIC50: −log10 of the molar value.

Columns and labels:
Assay in all cases: biochemical
SIK1 = molecular target: T1, SIK1 (Homo sapiens, UniProt P57059); conditions: 33P radioactive SIK kinase assay, AMARA peptide, 10 μM ATP; read-out: SIK1 IC50
T1 construct: purchased Carna Biosciences 02-131
Experimental: (§1) The principle of the ^33P radioactive kinase assay consists in measuring the incorporated ^33P into the substrate AMARA peptide when phosphorylated by SIK1, SIK2 or SIK3 using [^33P]-g-ATP, which correlates with kinase activity.
(§2) 1% DMSO and 10 μM staurosporine final concentrations are used as negative and positive controls.
(§3) 11 μL of enzyme-substrate mixture is added on the assay plates. The reactions are started by adding 9 μL ATP mixture, consisting of non-labeled and ^33P-labeled ATP, on the assay plates.
(§4) The reactions are stopped by adding 25 μL phosphoric acid (150 mM) to the reactions.
(§5) After harvesting the kinase reactions, the filter plates are washed 6 times with phosphoric acid (75 mM). […] The top of the plates are sealed with TopSeal-A. Read-out is performed with a TopCount instrument (PerkinElmer Inc.).

SIK2 = molecular target: T2, SIK2 (Homo sapiens, UniProt Q9H0K1); conditions: 33P radioactive SIK kinase assay, AMARA peptide, 10 μM ATP
T2 construct: purchased ThermoFisher Scientific PV4792
T2 sequence (Q9H0K1 whole entry): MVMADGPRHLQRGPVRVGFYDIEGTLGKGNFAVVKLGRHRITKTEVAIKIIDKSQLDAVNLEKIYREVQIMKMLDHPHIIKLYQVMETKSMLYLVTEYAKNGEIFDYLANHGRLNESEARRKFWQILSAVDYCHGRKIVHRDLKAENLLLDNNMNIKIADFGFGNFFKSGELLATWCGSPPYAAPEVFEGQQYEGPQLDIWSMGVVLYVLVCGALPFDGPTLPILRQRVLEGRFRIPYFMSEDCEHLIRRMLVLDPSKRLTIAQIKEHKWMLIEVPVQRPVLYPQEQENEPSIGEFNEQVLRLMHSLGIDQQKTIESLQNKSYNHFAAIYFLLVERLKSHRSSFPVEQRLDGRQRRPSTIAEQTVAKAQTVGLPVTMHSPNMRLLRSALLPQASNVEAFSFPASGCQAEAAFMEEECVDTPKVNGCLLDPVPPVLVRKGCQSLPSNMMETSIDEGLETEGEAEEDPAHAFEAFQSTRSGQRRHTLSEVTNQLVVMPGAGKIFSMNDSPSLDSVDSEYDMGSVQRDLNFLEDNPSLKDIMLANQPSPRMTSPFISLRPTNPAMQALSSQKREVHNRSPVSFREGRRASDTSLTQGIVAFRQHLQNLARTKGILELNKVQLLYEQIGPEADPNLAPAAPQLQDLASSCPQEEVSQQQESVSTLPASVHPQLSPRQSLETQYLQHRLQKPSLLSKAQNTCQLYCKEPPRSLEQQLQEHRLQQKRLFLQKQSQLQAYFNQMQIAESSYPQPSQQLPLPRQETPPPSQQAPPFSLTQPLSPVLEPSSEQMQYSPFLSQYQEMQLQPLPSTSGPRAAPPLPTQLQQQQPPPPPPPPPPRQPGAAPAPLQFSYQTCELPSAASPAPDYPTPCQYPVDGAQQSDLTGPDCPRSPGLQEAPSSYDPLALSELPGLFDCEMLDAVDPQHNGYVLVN
Experimental: as §1, §2, §3, §4, §5

SIK3 = molecular target: T3, SIK3 (Homo sapiens, UniProt Q9Y2K2)
T3 construct: purchased SignalChem S12-11G-100
T3 sequence (Q9Y2K2 whole entry): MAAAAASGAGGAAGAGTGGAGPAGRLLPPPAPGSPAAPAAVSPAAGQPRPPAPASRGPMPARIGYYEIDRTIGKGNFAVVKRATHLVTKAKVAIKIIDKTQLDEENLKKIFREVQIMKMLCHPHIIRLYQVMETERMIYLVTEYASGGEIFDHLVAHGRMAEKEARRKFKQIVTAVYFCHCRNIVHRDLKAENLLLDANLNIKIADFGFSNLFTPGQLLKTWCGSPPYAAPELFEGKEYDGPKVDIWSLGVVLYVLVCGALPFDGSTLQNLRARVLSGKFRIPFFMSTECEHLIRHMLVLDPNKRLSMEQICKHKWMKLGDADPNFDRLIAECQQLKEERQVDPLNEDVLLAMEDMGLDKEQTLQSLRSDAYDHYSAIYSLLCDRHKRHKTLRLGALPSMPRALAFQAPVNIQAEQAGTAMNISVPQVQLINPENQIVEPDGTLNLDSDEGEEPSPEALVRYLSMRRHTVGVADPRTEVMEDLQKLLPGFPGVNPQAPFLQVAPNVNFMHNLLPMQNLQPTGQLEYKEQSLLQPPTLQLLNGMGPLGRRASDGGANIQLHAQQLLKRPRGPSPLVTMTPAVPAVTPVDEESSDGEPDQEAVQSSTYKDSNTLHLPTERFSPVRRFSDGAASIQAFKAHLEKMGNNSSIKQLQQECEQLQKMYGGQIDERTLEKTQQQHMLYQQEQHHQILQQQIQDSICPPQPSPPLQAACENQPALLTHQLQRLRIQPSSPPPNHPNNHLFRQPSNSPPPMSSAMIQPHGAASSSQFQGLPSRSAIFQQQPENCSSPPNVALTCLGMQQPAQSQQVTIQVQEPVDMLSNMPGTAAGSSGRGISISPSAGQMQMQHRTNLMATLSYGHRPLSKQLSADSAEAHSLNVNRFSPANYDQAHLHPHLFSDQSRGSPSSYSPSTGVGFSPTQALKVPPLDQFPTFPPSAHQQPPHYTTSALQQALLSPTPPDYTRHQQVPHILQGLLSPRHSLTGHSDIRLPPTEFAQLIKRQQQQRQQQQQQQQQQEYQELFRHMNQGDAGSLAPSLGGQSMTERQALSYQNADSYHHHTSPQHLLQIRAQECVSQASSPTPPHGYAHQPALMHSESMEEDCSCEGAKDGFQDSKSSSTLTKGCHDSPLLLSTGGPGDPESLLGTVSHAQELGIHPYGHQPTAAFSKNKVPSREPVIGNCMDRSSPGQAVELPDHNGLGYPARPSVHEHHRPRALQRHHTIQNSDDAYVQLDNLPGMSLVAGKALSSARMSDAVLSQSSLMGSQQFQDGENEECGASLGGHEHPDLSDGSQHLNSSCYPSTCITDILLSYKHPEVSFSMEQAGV
Experimental: as §1, §2, §3, §4, §5

T1 sequence (P57059 whole entry): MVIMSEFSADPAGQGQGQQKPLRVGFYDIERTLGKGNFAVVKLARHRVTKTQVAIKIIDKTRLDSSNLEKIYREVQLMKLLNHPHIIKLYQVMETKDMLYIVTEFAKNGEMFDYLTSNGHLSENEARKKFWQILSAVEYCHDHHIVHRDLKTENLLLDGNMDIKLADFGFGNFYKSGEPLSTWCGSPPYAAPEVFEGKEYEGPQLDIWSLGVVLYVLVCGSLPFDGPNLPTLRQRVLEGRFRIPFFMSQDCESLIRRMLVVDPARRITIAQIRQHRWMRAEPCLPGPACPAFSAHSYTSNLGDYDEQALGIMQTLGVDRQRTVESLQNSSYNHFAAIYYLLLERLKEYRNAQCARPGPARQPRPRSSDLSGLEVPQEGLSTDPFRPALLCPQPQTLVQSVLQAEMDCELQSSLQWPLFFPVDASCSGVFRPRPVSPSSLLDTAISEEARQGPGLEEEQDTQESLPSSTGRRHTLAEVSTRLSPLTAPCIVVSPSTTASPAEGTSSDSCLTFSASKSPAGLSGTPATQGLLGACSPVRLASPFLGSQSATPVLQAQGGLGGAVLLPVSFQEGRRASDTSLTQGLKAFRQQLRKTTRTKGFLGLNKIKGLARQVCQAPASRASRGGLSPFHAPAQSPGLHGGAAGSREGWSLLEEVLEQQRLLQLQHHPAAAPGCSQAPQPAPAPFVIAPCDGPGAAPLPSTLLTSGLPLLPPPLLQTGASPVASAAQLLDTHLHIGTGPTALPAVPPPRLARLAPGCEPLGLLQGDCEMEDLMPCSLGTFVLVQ

Structure (SMILES) | pIC50 (SIK1) | pIC50 (SIK2) | pIC50 (SIK3)
COc1cc(-n2cnc3cc(-c4cnn(C)c4)ccc32)cc(OC)c1C(=O)NCCC#N [compound 59, N-(2-cyanoethyl)-2,6-dimethoxy-4-[5-(1-methylpyrazol-4-yl)benzimidazol-1-yl]benzamide] | 7.00 to 8.00 | 7.00 to 8.00 | 7.00 to 8.00
COc1cc(-n2cnc3cc(-c4cnn(C)c4)ccc32)cc(OC)c1C(=O)NCc1ccn(C)n1 [compound 61] | < 6.30 | 6.30 to 7.00 | < 6.30
COc1cc(-n2cnc3cc(-c4cnn(C)c4)ccc32)cc(OC)c1C(=O)NC1CS(=O)(=O)C1 [compound 64, N-(1,1-dioxothietan-3-yl)-2,6-dimethoxy-4-[5-(1-methylpyrazol-4-yl)benzimidazol-1-yl]benzamide] | 6.30 to 7.00 | 7.00 to 8.00 | 7.00 to 8.00
COc1cc(-n2cnc3cc(-c4cnn(C)c4)ccc32)cc(OC)c1C(=O)NCCS(C)(=O)=O [compound 65, 2,6-dimethoxy-4-[5-(1-methylpyrazol-4-yl)benzimidazol-1-yl)-N-(2-methylsulfonylethyl)benzamide] | 6.30 to 7.00 | 7.00 to 8.00 | 7.00 to 8.00
COc1cc(-n2cnc3cc(-c4cnn(C)c4)ccc32)cc(OC)c1C(=O)NC1CCS(=O)(=O)C1 (stereo not drawn) [compound 66, N-(1,1-dioxothiolan-3-yl)-2,6-dimethoxy-4-[5-(1-methylpyrazol-4-yl)benzimidazol-1-yl]benzamide] | 6.30 to 7.00 | 6.30 to 7.00 | 6.30 to 7.00
COc1cc(-n2cnc3cc(-c4cnn(C)c4)ccc32)cc(OC)c1C(=O)NC(C)(C)C(F)(F)F [compound 68, 2,6-dimethoxy-4-[5-(1-methylpyrazol-4-yl)benzimidazol-1-yl]-N-(2,2,2-trifluoro-1,1-dimethyl-ethyl)benzamide] | < 6.30 | < 6.30 | 6.30 to 7.00
COc1cc(-n2cnc3cc(-c4cnn(C)c4)ccc32)cc(OC)c1C(=O)Nc1ccon1 [compound 72, N-isoxazol-3-yl-2,6-dimethoxy-4-[5-(1-methylpyrazol-4-yl)benzimidazol-1-yl]benzamide] | 7.00 to 8.00 | 7.00 to 8.00 | 7.00 to 8.00
COc1cc(-n2cnc3cc(-c4cnn(C)c4)ccc32)cc(OC)c1C(=O)NCC#N [compound 75] | 7.00 to 8.00 | 8.00 to 11.00 | 8.00 to 11.00
COc1cc(-n2cnc3cc(-c4cnn(C)c4)ccc32)cc(OC)c1C(=O)NCCF [compound 79, N-(2-fluoroethyl)-2,6-dimethoxy-4-[5-(1-methylpyrazol-4-yl)benzimidazol-1-yl]benzamide] | 7.00 to 8.00 | 8.00 to 11.00 | 8.00 to 11.00
COc1cc(-n2cnc3cc(-c4cnn(C)c4)ccc32)cc(OC)c1C(=O)NC(C)C#N (stereo not drawn) [compound 87, N-(1-cyanoethyl)-2,6-dimethoxy-4-[5-(1-methylpyrazol-4-yl)benzimidazol-1-yl]benzamide] | 7.00 to 8.00 | 7.00 to 8.00 | 7.00 to 8.00
COc1cc(-n2cnc3cc(-c4ccn(C)n4)ccc32)cc(OC)c1C(=O)NCC(F)(F)F [compound 89, 2,6-dimethoxy-4-[5-(1-methylpyrazol-3-yl)benzimidazol-1-yl]-N-(2,2,2-trifluoroethyl)benzamide] | 7.00 to 8.00 | 7.00 to 8.00 | 7.00 to 8.00

Results, then the compound that gave them:

pIC50 (SIK1) | pIC50 (SIK2) | pIC50 (SIK3) | Structure (SMILES)
7.00 to 8.00 | 7.00 to 8.00 | 8.00 to 11.00 | COc1cc(-n2cnc3cc(-c4cn[nH]c4)ccc32)cc(OC)c1C(=O)NCC(F)(F)F [compound 47, 2,6-dimethoxy-4-[5-(1H-pyrazol-4-yl)benzimidazol-1-yl]-N-(2,2,2-trifluoroethyl)benzamide]
7.00 to 8.00 | 7.00 to 8.00 | 6.30 to 7.00 | COCCCNC(=O)c1c(OC)cc(-n2cnc3cc(-c4cnn(C)c4)ccc32)cc1OC [compound 60]
6.30 to 7.00 | 6.30 to 7.00 | 6.30 to 7.00 | COc1cc(-n2cnc3cc(-c4cnn(C)c4)ccc32)cc(OC)c1C(=O)NCc1ccccn1 [compound 62, 2,6-dimethoxy-4-[5-(1-methylpyrazol-4-yl)benzimidazol-1-yl]-N-(2-pyridylmethyl)benzamide]
6.30 to 7.00 | 7.00 to 8.00 | 7.00 to 8.00 | COc1cc(-n2cnc3cc(-c4cnn(C)c4)ccc32)cc(OC)c1C(=O)NCCCO [compound 63, N-(3-hydroxypropyl)-2,6-dimethoxy-4-[5-(1-methylpyrazol-4-yl)benzimidazol-1-yl]benzamide]
6.30 to 7.00 | 6.30 to 7.00 | 6.30 to 7.00 | COc1cc(-n2cnc3cc(-c4cnn(C)c4)ccc32)cc(OC)c1C(=O)NC[C@@H]1COCCO1 [compound 67, N-[[(2R)-1,4-dioxan-2-yl]methyl]-2,6-dimethoxy-4-[5-(1-methylpyrazol-4-yl)benzimidazol-1-yl]benzamide]
6.30 to 7.00 | 6.30 to 7.00 | 6.30 to 7.00 | COc1cc(-n2cnc3cc(-c4cnn(C)c4)ccc32)cc(OC)c1C(=O)NC[C@H]1COCCO1 [compound 69, N-[[(2S)-1,4-dioxan-2-yl]methyl]-2,6-dimethoxy-4-[5-(1-methylpyrazol-4-yl)benzimidazol-1-yl]benzamide]
6.30 to 7.00 | 7.00 to 8.00 | 6.30 to 7.00 | COc1cc(-n2cnc3cc(-c4cnn(C)c4)ccc32)cc(OC)c1C(=O)NCc1nccn1C [compound 71, 2,6-dimethoxy-N-[(1-methylimidazol-2-yl)methyl]-4-[5-(1-methylpyrazol-4-yl)benzimidazol-1-yl]benzamide]
< 6.30 | 6.30 to 7.00 | 6.30 to 7.00 | COc1cc(-n2cnc3cc(-c4cnn(C)c4)ccc32)cc(OC)c1C(=O)Nc1ccnn1C [compound 73, 2,6-dimethoxy-N-(2-methylpyrazol-3-yl)-4-[5-(1-methylpyrazol-4-yl)benzimidazol-1-yl]benzamide]
6.30 to 7.00 | 6.30 to 7.00 | 7.00 to 8.00 | COc1cc(-n2cnc3cc(-c4cnn(C)c4)ccc32)cc(OC)c1C(=O)N(C)CC#N [compound 74, N-(cyanomethyl)-2,6-dimethoxy-N-methyl-4-[5-(1-methylpyrazol-4-yl)benzimidazol-1-yl]benzamide]
7.00 to 8.00 | 7.00 to 8.00 | 7.00 to 8.00 | COc1cc(-n2cnc3cc(-c4cnn(C)c4)ccc32)cc(OC)c1C(=O)NC1CCC1 [compound 77, N-cyclobutyl-2,6-dimethoxy-4-[5-(1-methylpyrazol-4-yl)benzimidazol-1-yl]benzamide]
6.30 to 7.00 | 6.30 to 7.00 | 6.30 to 7.00 | COc1cc(-n2cnc3cc(-c4cnn(C)c4)ccc32)cc(OC)c1C(=O)Nc1ccn(C)n1 [compound 81, 2,6-dimethoxy-N-(1-methylpyrazol-3-yl)-4-[5-(1-methylpyrazol-4-yl)benzimidazol-1-yl]benzamide]
6.30 to 7.00 | 6.30 to 7.00 | 6.30 to 7.00 | COc1cc(-n2cnc3cc(-c4cnn(C)c4)ccc32)cc(OC)c1C(=O)Nc1cn(C)cn1 [compound 82, 2,6-dimethoxy-N-(1-methylimidazol-4-yl)-4-[5-(1-methylpyrazol-4-yl)benzimidazol-1-yl]benzamide]
6.30 to 7.00 | 6.30 to 7.00 | 6.30 to 7.00 | COc1cc(-n2cnc3cc(-c4cnn(C)c4)ccc32)cc(OC)c1C(=O)Nc1cnn(C)c1 [compound 83, 2,6-dimethoxy-N-(1-methylpyrazol-4-yl)-4-[5-(1-methylpyrazol-4-yl)benzimidazol-1-yl]benzamide]
